Reference: ChEMBL document CHEMBL4665869, “New thiazolopyrimidine as anticancer agents: Synthesis, biological evaluation, DNA binding, molecular modeling and ADMET study” (Bioorg Med Chem Lett, 2020)
≈ marks a conversion by molar mass, not a printed value.

How the values were obtained:
DNA = assay: Displacement of methyl green from DNA (unknown origin) assessed as DNA intercalation after 24 hrs by colorimetric assay; assay type: nucleic-acid assay
Malme-3M = assay: Growth inhibition of human Malme-3M cells at 10 uM relative to control; assay type: functional; settings: read-out: GI
HL-60(TB) = assay: Growth inhibition of human HL-60(TB) cells at 10 uM relative to control; assay type: functional; settings: read-out: GI
OVCAR-4 = assay: Growth inhibition of human OVCAR-4 cells at 10 uM relative to control; assay type: functional; settings: read-out: GI
MCF7 = assay: Growth inhibition of human MCF7 cells at 10 uM relative to control; assay type: functional; settings: read-out: GI
BT-549 = assay: Growth inhibition of human BT-549 cells at 10 uM relative to control; assay type: functional; settings: read-out: GI
SR = assay: Growth inhibition of human SR cells at 10 uM relative to control; assay type: functional; settings: read-out: GI
A549 = assay: Growth inhibition of human A549 cells at 10 uM relative to control; assay type: functional; settings: read-out: GI
OVCAR-5 = assay: Growth inhibition of human OVCAR-5 cells at 10 uM relative to control; assay type: functional; settings: read-out: GI
HT-29 = assay: Growth inhibition of human HT-29 cells at 10 uM relative to control; assay type: functional; settings: read-out: GI
COLO 205 = assay: Growth inhibition of human COLO 205 cells at 10 uM relative to control; assay type: functional; settings: read-out: GI
SK-OV-3 = assay: Growth inhibition of human SK-OV-3 cells at 10 uM relative to control; assay type: functional; settings: read-out: GI
NCI-H460 = assay: Growth inhibition of human NCI-H460 cells at 10 uM relative to control; assay type: functional; settings: read-out: GI
UACC-62 = assay: Growth inhibition of human UACC-62 cells at 10 uM relative to control; assay type: functional; settings: read-out: GI
HOP-62 = assay: Growth inhibition of human HOP-62 cells at 10 uM relative to control; assay type: functional; settings: read-out: GI
SF-295 = assay: Growth inhibition of human SF-295 cells at 10 uM relative to control; assay type: functional; settings: read-out: GI
NCI-H522 = assay: Growth inhibition of human NCI-H522 cells at 10 uM relative to control; assay type: functional; settings: read-out: GI
SK-MEL-28 = assay: Growth inhibition of human SK-MEL-28 cells at 10 uM relative to control; assay type: functional; settings: read-out: GI
LOX IMVI = assay: Growth inhibition of human LOX IMVI cells at 10 uM relative to control; assay type: functional; settings: read-out: GI
HOP-92 = assay: Growth inhibition of human HOP-92 cells at 10 uM relative to control; assay type: functional; settings: read-out: GI
KM12 = assay: Growth inhibition of human KM12 cells at 10 uM relative to control; assay type: functional; settings: read-out: GI
CAKI-1 = assay: Growth inhibition of human CAKI-1 cells at 10 uM relative to control; assay type: functional; settings: read-out: GI
T47D = assay: Growth inhibition of human T47D cells at 10 uM relative to control; assay type: functional; settings: read-out: GI
SN12C = assay: Growth inhibition of human SN12C cells at 10 uM relative to control; assay type: functional; settings: read-out: GI
ACHN = assay: Growth inhibition of human ACHN cells at 10 uM relative to control; assay type: functional; settings: read-out: GI
PC-3 = assay: Growth inhibition of human PC-3 cells at 10 uM relative to control; assay type: functional; settings: read-out: GI
NCI/ADR-RES = assay: Growth inhibition of human NCI/ADR-RES cells at 10 uM relative to control; assay type: functional; settings: read-out: GI
HCT-15 = assay: Growth inhibition of human HCT-15 cells at 10 uM relative to control; assay type: functional; settings: read-out: GI
SNB-19 = assay: Growth inhibition of human SNB-19 cells at 10 uM relative to control; assay type: functional; settings: read-out: GI
SF-268 = assay: Growth inhibition of human SF-268 cells at 10 uM relative to control; assay type: functional; settings: read-out: GI
MOLT-4 = assay: Growth inhibition of human MOLT-4 cells at 10 uM relative to control; assay type: functional; settings: read-out: GI
MDA-MB-231 = assay: Growth inhibition of human MDA-MB-231 cells at 10 uM relative to control; assay type: functional; settings: read-out: GI
HCT-116 = assay: Growth inhibition of human HCT-116 cells at 10 uM relative to control; assay type: functional; settings: read-out: GI
SK-MEL-5 = assay: Growth inhibition of human SK-MEL-5 cells at 10 uM relative to control; assay type: functional; settings: read-out: GI
RXF 393 = assay: Growth inhibition of human RXF 393 cells at 10 uM relative to control; assay type: functional; settings: read-out: GI
NCI-H23 = assay: Growth inhibition of human NCI-H23 cells at 10 uM relative to control; assay type: functional; settings: read-out: GI
A498 = assay: Growth inhibition of human A498 cells at 10 uM relative to control; assay type: functional; settings: read-out: GI
IGROV-1 = assay: Growth inhibition of human IGROV-1 cells at 10 uM relative to control; assay type: functional; settings: read-out: GI
DU-145 = assay: Growth inhibition of human DU-145 cells at 10 uM relative to control; assay type: functional; settings: read-out: GI
SW-620 = assay: Growth inhibition of human SW-620 cells at 10 uM relative to control; assay type: functional; settings: read-out: GI
SF-539 = assay: Growth inhibition of human SF-539 cells at 10 uM relative to control; assay type: functional; settings: read-out: GI
OVCAR-8 = assay: Growth inhibition of human OVCAR-8 cells at 10 uM relative to control; assay type: functional; settings: read-out: GI
K562 = assay: Growth inhibition of human K562 cells at 10 uM relative to control; assay type: functional; settings: read-out: GI
SNB-75 = assay: Growth inhibition of human SNB-75 cells at 10 uM relative to control; assay type: functional; settings: read-out: GI
MDA-MB-435 = assay: Growth inhibition of human MDA-MB-435 cells at 10 uM relative to control; assay type: functional; settings: read-out: GI
SK-MEL-2 = assay: Growth inhibition of human SK-MEL-2 cells at 10 uM relative to control; assay type: functional; settings: read-out: GI
UO-31 = assay: Growth inhibition of human UO-31 cells at 10 uM relative to control; assay type: functional; settings: read-out: GI
CCRF-CEM = assay: Growth inhibition of human CCRF-CEM cells at 10 uM relative to control; assay type: functional; settings: read-out: GI
RPMI-8226 = assay: Growth inhibition of human RPMI-8226 cells at 10 uM relative to control; assay type: functional; settings: read-out: GI
U-251 = assay: Growth inhibition of human U-251 cells at 10 uM relative to control; assay type: functional; settings: read-out: GI
Hs-578T = assay: Growth inhibition of human Hs-578T cells at 10 uM relative to control; assay type: functional; settings: read-out: GI
M14 = assay: Growth inhibition of human M14 cells at 10 uM relative to control; assay type: functional; settings: read-out: GI
NCI-H322M = assay: Growth inhibition of human NCI-H322M cells at 10 uM relative to control; assay type: functional; settings: read-out: GI
786-0 = assay: Growth inhibition of human 786-0 cells at 10 uM relative to control; assay type: functional; settings: read-out: GI
TK-10 = assay: Growth inhibition of human TK-10 cells at 10 uM relative to control; assay type: functional; settings: read-out: GI
MDA-MB-468 = assay: Growth inhibition of human MDA-MB-468 cells at 10 uM relative to control; assay type: functional; settings: read-out: GI
NCI-H226 = assay: Growth inhibition of human NCI-H226 cells at 10 uM relative to control; assay type: functional; settings: read-out: GI
HCC 2998 = assay: Growth inhibition of human HCC 2998 cells at 10 uM relative to control; assay type: functional; settings: read-out: GI

## COc1ccc(/C=C/C2=CC(c3ccc(OC)c(OC)c3)N3C=C(C)SC3=N2)cc1OC (centres undefined)
DNA
  IC50: 58.32 µg/mL (≈ 129 µM)

## CCOC(=O)C1=CSC2=NC(/C=C/c3ccc(C)cc3)=CC(c3ccc(C)cc3)N12 (centres undefined)
DNA
  IC50: 31.49 µg/mL (≈ 75.6 µM)

## CC1=CSC2=NC(/C=C/c3ccc(C)cc3)=CC(c3ccc(C)cc3)N12 (centres undefined)
DNA
  IC50: 83.41 µg/mL (≈ 233 µM)

## COc1ccc(/C=C/C2=CC(c3ccc(OC)cc3)N3C=C(C)SC3=N2)cc1 (centres undefined)
DNA
  IC50: 41.37 µg/mL (≈ 106 µM)

## COc1ccc(/C=C/C2=CC(c3ccc(OC)c(OC)c3)N3C(C)=CSC3=N2)cc1OC (centres undefined)
Malme-3M
  inhibition of growth at 10 µM: < 10%
HL-60(TB)
  inhibition of growth at 10 µM: < 10%
OVCAR-4
  inhibition of growth at 10 µM: < 10%
MCF7
  inhibition of growth at 10 µM: < 10%
DNA
  IC50: 72.54 µg/mL (≈ 161 µM)
BT-549
  inhibition of growth at 10 µM: < 10%
SR
  inhibition of growth at 10 µM: < 10%
A549
  inhibition of growth at 10 µM: < 10%
OVCAR-5
  inhibition of growth at 10 µM: < 10%
HT-29
  inhibition of growth at 10 µM: < 10%
COLO 205
  inhibition of growth at 10 µM: < 10%
SK-OV-3
  inhibition of growth at 10 µM: < 10%
NCI-H460
  inhibition of growth at 10 µM: < 10%
UACC-62
  inhibition of growth at 10 µM: < 10%
HOP-62
  inhibition of growth at 10 µM: < 10%
SF-295
  inhibition of growth at 10 µM: < 10%
NCI-H522
  inhibition of growth at 10 µM: < 10%
SK-MEL-28
  inhibition of growth at 10 µM: < 10%
LOX IMVI
  inhibition of growth at 10 µM: < 10%
HOP-92
  inhibition of growth at 10 µM: 18%
KM12
  inhibition of growth at 10 µM: < 10%
CAKI-1
  inhibition of growth at 10 µM: < 10%
T47D
  inhibition of growth at 10 µM: < 10%
SN12C
  inhibition of growth at 10 µM: < 10%
ACHN
  inhibition of growth at 10 µM: < 10%
PC-3
  inhibition of growth at 10 µM: < 10%
NCI/ADR-RES
  inhibition of growth at 10 µM: < 10%
HCT-15
  inhibition of growth at 10 µM: < 10%
SNB-19
  inhibition of growth at 10 µM: < 10%
SF-268
  inhibition of growth at 10 µM: < 10%
MOLT-4
  inhibition of growth at 10 µM: < 10%
MDA-MB-231
  inhibition of growth at 10 µM: < 10%
HCT-116
  inhibition of growth at 10 µM: < 10%
SK-MEL-5
  inhibition of growth at 10 µM: < 10%
RXF 393
  inhibition of growth at 10 µM: < 10%
NCI-H23
  inhibition of growth at 10 µM: < 10%
A498
  inhibition of growth at 10 µM: 17.6%
IGROV-1
  inhibition of growth at 10 µM: < 10%
DU-145
  inhibition of growth at 10 µM: < 10%
SW-620
  inhibition of growth at 10 µM: < 10%
SF-539
  inhibition of growth at 10 µM: < 10%
OVCAR-8
  inhibition of growth at 10 µM: < 10%
K562
  inhibition of growth at 10 µM: < 10%
SNB-75
  inhibition of growth at 10 µM: < 10%
MDA-MB-435
  inhibition of growth at 10 µM: < 10%
SK-MEL-2
  inhibition of growth at 10 µM: < 10%
UO-31
  inhibition of growth at 10 µM: 11.7%
CCRF-CEM
  inhibition of growth at 10 µM: < 10%
RPMI-8226
  inhibition of growth at 10 µM: < 10%
U-251
  inhibition of growth at 10 µM: < 10%
Hs-578T
  inhibition of growth at 10 µM: < 10%
M14
  inhibition of growth at 10 µM: < 10%
NCI-H322M
  inhibition of growth at 10 µM: < 10%
786-0
  inhibition of growth at 10 µM: < 10%
TK-10
  inhibition of growth at 10 µM: < 10%
MDA-MB-468
  inhibition of growth at 10 µM: < 10%
NCI-H226
  inhibition of growth at 10 µM: < 10%
HCC 2998
  inhibition of growth at 10 µM: < 10%

## COc1cc(/C=C/C2=CC(c3cc(OC)c(OC)c(OC)c3)N3C=CSC3=N2)cc(OC)c1OC (centres undefined)
DNA
  IC50: 55.42 µg/mL (≈ 112 µM)

## COc1ccc(/C=C/C2=CC(c3ccc(OC)cc3)N3C(C)=CSC3=N2)cc1 (centres undefined)
DNA
  IC50: 42.5 µg/mL (≈ 109 µM)
